# Experimental data taken from US11142527B2, “Dihydropyrimidine compounds and uses thereof in medicine” (SUNSHINE LAKE PHARMA CO., LTD., priority 2017, dated 2021).
# Test system: HBV
# Assay: Test of anti HBV activity in vitro (viral DNA by qPCR)
# Type: cell-based
# Details: Hepatitis B virus; HepG2.2.15 cells, viral DNA in cell culture supernatant by qPCR; read-out: EC50 values of the compound of the invention on viral replication
# Method: Test 1: Test Method of Calculating Anti HBV EC50
# HBV Cell Line and Culture Conditions
# HepG2.2.15 (SELLS, PNAS, 1987 and SELLS, JV, 1988) chromosomes have an integrated complete HBV genome, and stably express viral RNA and viral protein. HepG2.2.15 cells can secrete mature HBV particles, HBsAg and HBeAg, to medium. HepG2.2.15 cells were cultured in DMEM containing 10% fetal bovine serum, 100 U/mL penicillin, 100 U/mL streptomycin, 1% non essential amino acid, 1 mM sodium pyruvate and 300 μg/mL G418.
# Viral particles DNA secreted from HepG2.2.15 cells can be quantified by qPCR, and the effect of the compound on viral replication can be detected.
# Test of Anti HBV Activity In Vitro
# 8000 HepG 2.2.15 cells per well were seeded into a 96-well plate, the plate was cultured at 37° C. and 5% CO2 for 3 days till the cells grew to full wells. Old liquid medium can be removed and replaced with new medium (200 μL) on day 0.
# Formulating the compound and treating the cells in the experiment of anti virus: the compound was dissolved in DMSO to a concentration of 30 mM, and then the compound solution was diluted with DMSO to a concentration of 800 μM, and then eight dilutions at 4 fold were performed, the highest concentration is 800 μM. The serial diluted compound was added to the above plate at 1 μL per well, the highest final concentration in the experiment is 4 μM (200 fold dilution). TDF (tenofovir dipiroxil fumarate, Selleck, Cat S1400) has a highest concentration of 4 μM as a positive control. 1 μL of DMSO was added in to the […] at a final concentration of 0.5%, TDF was added in to the […] at a final concentration of 1 μM.
# Detection of Viral Genomic DNA by aPCR
# Primer: HBV-For-202, […]; HBV-Rev-315, […]. Copies of virus can be calculated using a standard curve plotted by using plasmid containing HBV genome and using SYBR Premix Ex Taq II—Takara DRR081S kit and 1 μL cell culture supernatant as a template. EC50 values of the compound on viral replication were calculated by a four parametric nonlinear regression model using Graphpad Prism 5 software to manage concentration—viral copy number.
row,Compound,EC50 [nM]
1,"COC(=O)C1=C(CN2CCN3C(=O)N(CC#Cc4ccc(C(N)=O)cc4)C[C@@H]3C2)NC(c2nccs2)=N[C@H]1c1ccc(F)cc1Cl [Example 39, (R)-methyl 6-(((S)-2-(3-(4-carbamoylphenyl)prop-2-yn-1-yl)-3-oxohexahydroimidazo[1,5-a]pyrazin-7(1H)-yl)methyl)-4-(2-chloro-4-fluorophenyl)-2-(thiazol-2-yl)-1,4-dihydropyrimidine-5-carboxylate]",6.6
2,"CONC(=O)c1ccc(C#CCN2C[C@@H]3CN(CC4=C(C(=O)OC)[C@H](c5ccc(F)cc5Cl)N=C(c5nccs5)N4)CCN3C2=O)cc1 [Example 40, (R)-methyl 4-(2-chloro-4-fluorophenyl)-6-(((S)-2-(3-(4-(methoxycarbamoyl)phenyl)prop-2-yn-1-yl)-3-oxohexahydroimidazo[1,5-a]pyrazin-7(1H)-yl)methyl)-2-(thiazol-2-yl)-1,4-dihydropyrimidine-5-carboxylate]",8.2
3,"COC(=O)C1=C(CN2CCN3C(=O)N(CC#Cc4ccc(OC)cc4)C[C@@H]3C2)NC(c2nccs2)=N[C@H]1c1ccc(F)cc1Cl [Example 45, (R)-methyl 4-(2-chloro-4-fluorophenyl)-6-(((S)-2-(3-(4-methoxyphenyl)prop-2-yn-1-yl)-3-oxohexahydroimidazo[1,5-a]pyrazin-7(1H)-yl)methyl)-2-(thiazol-2-yl)-1,4-dihydropyrimidine-5-carboxylate]",14.4
4,"COC(=O)C1=C(CN2CCN3C(=O)N(CC#Cc4ccc(C(=O)O)c(OC)c4)C[C@@H]3C2)NC(c2nccs2)=N[C@H]1c1ccc(F)cc1Cl [Example 52, 4-(3-((S)-7-(((R)-6-(2-chloro-4-fluorophenyl)-5-(methoxycarbonyl)-2-(thiazol-2-yl)-3,6-dihydropyrimidin-4-yl)methyl)-3-oxohexahydroimidazo[1,5-a]pyrazin-2(3H)-yl)prop-1-yn-1-yl)-2-methoxybenzoic acid]",41.8
5,"COC(=O)C1=C(CN2CCN3C(=O)N(CC#Cc4ccc(C(=O)O)cc4OC)C[C@@H]3C2)NC(c2nccs2)=N[C@H]1c1ccc(F)cc1Cl [Example 53, 4-(3-((S)-7-(((R)-6-(2-chloro-4-fluorophenyl)-5-(methoxycarbonyl)-2-(thiazol-2-yl)-3,6-dihydropyrimidin-4-yl)methyl)-3-oxohexahydroimidazo[1,5-a]pyrazin-2(3H)-yl)prop-1-yn-1-yl)-3-methoxybenzoic acid]",34.1
6,"COC(=O)C1=C(CN2CCN3C(=O)N(c4ccc(N5CCOC(CC(=O)O)C5)cc4)C[C@@H]3C2)NC(c2nccs2)=N[C@H]1c1ccc(F)cc1Cl (stereo partly drawn) [Example 76, 2-(4-(4-((S)-7-(((R)-6-(2-chloro-4-fluorophenyl)-5-(methoxycarbonyl)-2-(thiazol-2-yl)-3,6-dihydropyrimidin-4-yl)methyl)-3-oxohexahydroimidazo[1,5-a]pyrazin-2(3H)-yl)phenyl)morpholin-2-yl)acetic acid]",5.4
7,"COC(=O)C1=C(CN2CCN3C(=O)N(c4ccc(Oc5ccc(C(=O)O)cn5)cc4)C[C@@H]3C2)NC(c2nccs2)=N[C@H]1c1ccc(F)cc1Cl [Example 78, 6-(4-((S)-7-(((R)-6-(2-chloro-4-fluorophenyl)-5-(methoxycarbonyl)-2-(thiazol-2-yl)-3,6-dihydropyrimidin-4-yl)methyl)-3-oxohexahydroimidazo[1,5-a]pyrazin-2(3H)-yl)phenoxy)nicotinic acid]",38.7
8,"COC(=O)C1=C(CN2CCN3C(=O)N(c4ccc(Oc5ccc(CCC(=O)O)cc5F)cc4F)C[C@@H]3C2)NC(c2nccs2)=N[C@H]1c1ccc(F)cc1Cl [Example 101, 3-(4-(4-((S)-7-(((R)-6-(2-chloro-4-fluorophenyl)-5-(methoxycarbonyl)-2-(thiazol-2-yl)-3,6-dihydropyrimidin-4-yl)methyl)-3-oxohexahydroimidazo[1,5-a]pyrazin-2(3H)-yl)-3-fluorophenoxy)-3-fluorophenyl)propanoic acid]",14.8
9,"COC(=O)C1=C(CN2CCN3C(=O)N(c4ccc(-c5cnc(C)[nH]5)cc4)C[C@@H]3C2)NC(c2nccs2)=N[C@H]1c1ccc(F)cc1Cl [Example 107, (R)-methyl 4-(2-chloro-4-fluorophenyl)-6-(((S)-2-(4-(2-methyl-1H-imidazol-5-yl)phenyl)-3-oxohexahydroimidazo[1,5-a]pyrazin-7(1H)-yl)methyl)-2-(thiazol-2-yl)-1,4-dihydropyrimidine-5-carboxylate]",6.5
10,"COC(=O)C1=C(CN2CCN3C(=O)N(c4ccc5[nH]c(C6CCCN6C)nc5c4)C[C@@H]3C2)NC(c2nccs2)=N[C@H]1c1ccc(F)cc1Cl (stereo partly drawn) [Example 108, (4R)-methyl 4-(2-chloro-4-fluorophenyl)-6-(((8aS)-2-(2-(1-methylpyrrolidin-2-yl)-1H-benzo[d]imidazol-5-yl)-3-oxohexahydroimidazo[1,5-a]pyrazin-7(1H)-yl)methyl)-2-(thiazol-2-yl)-1,4-dihydropyrimidine-5-carboxylate]",6.8
11,"CCc1c[nH]c(-c2ccc(N3C[C@@H]4CN(CC5=C(C(=O)OC)[C@H](c6ccc(F)cc6Cl)N=C(c6nccs6)N5)CCN4C3=O)cc2)n1 [Example 109, (R)-methyl 4-(2-chloro-4-fluorophenyl)-6-(((S)-2-(4-(4-ethyl-1H-imidazol-2-yl)phenyl)-3-oxohexahydroimidazo[1,5-a]pyrazin-7(1H)-yl)methyl)-2-(thiazol-2-yl)-1,4-dihydropyrimidine-5-carboxylate]",12.4
12,"COC(=O)C1=C(CN2CCN3C(=O)N(c4ccc(-c5nc(C6CCCCC6)c[nH]5)cc4)C[C@@H]3C2)NC(c2nccs2)=N[C@H]1c1ccc(F)cc1Cl [Example 110, (R)-methyl 4-(2-chloro-4-fluorophenyl)-6-(((S)-2-(4-(5-cyclohexyl-1H-imidazol-2-yl)phenyl)-3-oxohexahydroimidazo[1,5-a]pyrazin-7(1H)-yl)methyl)-2-(thiazol-2-yl)-1,4-dihydropyrimidine-5-carboxylate]",30.5
13,"COC(=O)C1=C(CN2CCN3C(=O)N(c4ccc(-c5ccc(C(=O)O)cc5)cc4F)C[C@@H]3C2)NC(c2nccs2)=N[C@H]1c1ccc(F)cc1Cl [Example 113, 4′-((S)-7-(((R)-6-(2-chloro-4-fluorophenyl)-5-(methoxycarbonyl)-2-(thiazol-2-yl)-3,6-dihydropyrimidin-4-yl)methyl)-3-oxohexahydroimidazo[1,5-a]pyrazin-2(3H)-yl)-3′-fluoro-[1,1′-biphenyl]-4-carboxylic acid]",23.9
14,"COC(=O)C1=C(CN2CCN3C(=O)N(c4ccc(-c5ccc(C(=O)O)cc5F)cc4)C[C@@H]3C2)NC(c2nccs2)=N[C@H]1c1ccc(F)cc1Cl [Example 115, 4′-((S)-7-(((R)-6-(2-chloro-4-fluorophenyl)-5-(methoxycarbonyl)-2-(thiazol-2-yl)-3,6-dihydropyrimidin-4-yl)methyl)-3-oxohexahydroimidazo[1,5-a]pyrazin-2(3H)-yl)-2-fluoro-[1,1′-biphenyl]-4-carboxylic acid]",17.2
15,COC(=O)C1=C(CN2CCN3C(=O)N(c4ccc(-c5ccc(C(=O)O)cc5F)cc4F)C[C@@H]3C2)NC(c2nccs2)=N[C@H]1c1ccc(F)cc1Cl [Example 120],25.5
16,"COC(=O)C1=C(CN2CCN3C(=O)N(c4ccc(-c5ccc(C(=O)O)c(F)c5)cc4F)C[C@@H]3C2)NC(c2nccs2)=N[C@H]1c1ccc(F)cc1Cl [Example 121, 4′-((S)-7-(((R)-6-(2-chloro-4-fluorophenyl)-5-(methoxycarbonyl)-2-(thiazol-2-yl)-3,6-dihydropyrimidin-4-yl)methyl)-3-oxohexahydroimidazo[1,5-a]pyrazin-2(3H)-yl)-3,3′-difluoro-[1,1′-biphenyl]-4-carboxylic acid]",36.4
17,"COC(=O)C1=C(CN2CCN3C(=O)N(c4ccc(-c5ccc(C(=O)O)cc5F)nc4)C[C@@H]3C2)NC(c2nccs2)=N[C@H]1c1ccc(F)cc1Cl [Example 124, 4-(5-((S)-7-(((R)-6-(2-chloro-4-fluorophenyl)-5-(methoxycarbonyl)-2-(thiazol-2-yl)-3,6-dihydropyrimidin-4-yl)methyl)-3-oxohexahydroimidazo[1,5-a]pyrazin-2(3H)-yl)pyridin-2-yl)-3-fluorobenzoic acid]",47.4
18,"COC(=O)C1=C(CN2CCN3C(=O)N(c4cc(F)cc(N5CCO[C@H](CCC(=O)O)C5)c4)C[C@@H]3C2)NC(c2nccs2)=N[C@H]1c1ccc(F)cc1Cl [Example 131, 3-((R)-4-(3-((S)-7-(((R)-6-(2-chloro-4-fluorophenyl)-5-(methoxycarbonyl)-2-(thiazol-2-yl)-3,6-dihydropyrimidin-4-yl)methyl)-3-oxohexahydroimidazo[1,5-a]pyrazin-2(3H)-yl)5-fluorophenyl)morpholin-2-yl)propanoic acid]",8.6
